These results are taken from patent US20100150863A1, “HYDROXY METHYL PHENYL PYRAZOLYL UREA COMPOUND USEFUL IN TREATMENT OF CANCER” (BAYER PHARMACEUTICALS CORPORATION, priority 2006, published 2010).

The subject of one assay is Bcr-Abl kinase. The note with it: greater potency than Imatinib; cited from earlier work.
The test system of the next assay is Bcr-Abl E255K mutant. Conditions: cited from earlier work.
In assay [1] the test system is Imatinib-resistant Bcr-Abl mutations. The note with it: cited from earlier work.
Assay [2] deals with T1, mutant Bcr-Abl-T315I kinase (Homo sapiens, UniProt P00519, T315I).
T1 construct: fused on or other part: P11274 (Breakpoint cluster region protein)
T1 sequence (P00519 242-493 T315I limits assumed): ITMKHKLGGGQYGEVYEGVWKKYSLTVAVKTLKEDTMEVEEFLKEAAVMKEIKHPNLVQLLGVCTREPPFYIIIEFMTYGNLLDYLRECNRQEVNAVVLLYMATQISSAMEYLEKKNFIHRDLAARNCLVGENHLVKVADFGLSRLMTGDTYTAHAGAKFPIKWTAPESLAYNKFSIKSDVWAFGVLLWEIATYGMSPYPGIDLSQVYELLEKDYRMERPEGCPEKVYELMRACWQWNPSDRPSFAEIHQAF
Kind of assay: Bcr-Abl mutant T315I biochemical assay. On the procedure: (§1) Bcr-Abl-wt or mutant Bcr-Abl-T315I kinase (0.17 nM) was incubated with Myelin Basic Protein (MBP, 2 μM) in assay buffer consisting of 50 mM Tris pH 7.5, 10 mM MgCl2, 1 mM EGTA, 2 mM DTT, 50 μM ATP and 0.4 μCi of ^33P-ATP. Test compounds were added at varying concentrations (final DMSO conc=1%) prior to the addition of ATP. The reaction mixture was incubated for 1 hour at 32° C. The reaction was then stopped by addition of phosphoric acid (final conc=1%) and samples were transferred to filtermats and read in a betaplate reader. Inhibition of MBP phosphorylation by Bcr-Abl-wt or Bcr-Abl-T315I was analyzed by using a 4 parameter fit and in-house software.

A further assay concerns K562. Kind of assay: Cell proliferation assay, K562. It counts as cell-based. The note with it: K562, human cell line expressing wild type Bcr-Abl; 72 hours, Cell Titer Glo. From the text: [Worded in the source for another cell line; this cell line is reported under the same test.] (§2) The adherent tumor cell proliferation assay used to test the compounds of the present invention involves a readout called Cell Titre-Glo developed by Promega (Cunningham, B A “A Growing Issue: Cell Proliferation Assays. Modern kits ease quantification of cell growth” The Scientist 2001, 15(13), 26; and Crouch, S P et al., “The use of ATP bioluminescence as a measure of cell proliferation and cytotoxicity” Journal of Immunological Methods 1993, 160, 81-88).
(§3) H460 cells (lung carcinoma, purchased from ATCC) were plated in 96-well plates at 3000 cells/well in complete media with 10% Fetal Calf Serum and incubated 24 hours at 37° C. Twenty-four hours after plating, test compounds were added over a final concentration range of 10 nM to 20 μM in serial dilutions at a final DMSO concentration of 0.2%. Cells were incubated for 72 hours at 37° C. in complete growth media after addition of the test compound. On day 4, using a Promega Cell Titer Glo Luminescent® assay kit, the cells were lysed and 100 microliters of substrate/buffer mixture was added to each well, mixed and incubated at room temperature for 8 minutes. The samples were read on a luminometer to measure the amount of ATP present in the cell lysates from each well, which corresponds to the number of viable cells in that well. Values read at 24-hour incubation were subtracted as Day 0. […]
A general note: ATP-based viability assays read luminescence as a measure of living cells.

The test system of assay [3] is BaF3 parental cell line that does not express Bcr-Abl. Kind of assay: Cell proliferation assay, BaF3 parental cell line. It is filed as cell-based. Conditions: Mus musculus.
The target in the next assay is T2, human recombinant c-Met (Homo sapiens, UniProt P08581).
T2 construct: C-terminal HIS-tagged intracellular kinase domain (956 to 1390 amino acids) human recombinant c-Met; His (C)
As to the kind of experiment: c-Met biochemical assay (ELISA). On the procedure: An ELISA format was used for the c-Met biochemical assay. This assay uses the C-terminal HIS-tagged intracellular kinase domain (956 to 1390 amino acids) human recombinant c-Met in 96-well plates. 96-Well plates (Costar #9018) coated with poly(GluTyr) (Sigma # P0275) were used in this assay. The poly(GluTyr) substrate coated on the plate was phosphorylated in a 100 μL reaction volume with 2 nM c-Met protein in an assay buffer (50 mM HEPES pH7.0, 5 mM MnCl2, 0.1% BSA, 0.5 mM sodium orthovanadate, 0.1% β-mercaptoethanol), with 0.2 μM ATP (Sigma #A7699). […] After 25 minutes of incubation, the assay reaction was stopped with 25 μL of 100 mM EDTA. The plates were then washed, and wells were treated with 100 μL of 80 ng/mL anti-4G10-HRP antibody (Upstate #16-105) for 1 h. Plates were washed one final time, and were developed with 100 μL 3,3′,5,5′-TMB (Sigma #T8665), and quenched with 100 μL 1M HCl. Plates were read on a Victor 2 plate reader (Perkin Elmer) and IC50 analysis and calculation were performed using in-house software.
(An ELISA detects its analyte on a solid surface through an enzyme-linked reagent.)

Another assay relates to BaF3-Abl(Y253F). As to the kind of experiment: Cell proliferation assay, BaF3-Abl(Y253F). Conditions: Imatinib-resistant mutation. It counts as cell-based.
Excerpt: [Worded in the source for another cell line; this cell line is reported under the same test.] as §2, §3

Another assay deals with BaF3-Abl(E255K). As to the kind of experiment: Cell proliferation assay, BaF3-Abl(E255K). It is filed as cell-based. The note with it: Imatinib-resistant mutation.
Excerpt: [Worded in the source for another cell line; this cell line is reported under the same test.] as §2, §3

Another assay has as its system BaF3-Abl(T315I). As to the kind of experiment: Cell proliferation assay, BaF3-Abl(T315I). It counts as cell-based. Conditions: Imatinib-resistant mutation.
Excerpt: [Worded in the source for another cell line; this cell line is reported under the same test.] as §2, §3

The subject of the next assay is BaF3-Abl(wt). As to the kind of experiment: Cell proliferation assay, BaF3-Abl(wt). It is filed as cell-based.
Excerpt: [Worded in the source for another cell line; this cell line is reported under the same test.] as §2, §3

Another assay deals with T3, Bcr-Abl-wt kinase (Homo sapiens, UniProt P00519).
T3 construct: fused on or other part: P11274 (Breakpoint cluster region protein)
T3 sequence (P00519 229-512 limits assumed): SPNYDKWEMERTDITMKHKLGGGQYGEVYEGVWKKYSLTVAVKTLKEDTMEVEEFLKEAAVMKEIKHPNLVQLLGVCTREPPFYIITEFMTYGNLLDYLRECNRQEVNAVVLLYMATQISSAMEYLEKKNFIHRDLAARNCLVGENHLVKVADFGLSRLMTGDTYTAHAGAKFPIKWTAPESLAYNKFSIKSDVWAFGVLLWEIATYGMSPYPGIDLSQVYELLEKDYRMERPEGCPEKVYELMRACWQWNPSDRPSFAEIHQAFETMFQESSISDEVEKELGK
As to the kind of experiment: Bcr-Abl wild type biochemical assay. On the procedure:
as §1

The subject of a further assay is BaF3-Abl(M351T). As to the kind of experiment: Cell proliferation assay, BaF3-Abl(M351T). It counts as cell-based. The note with it: Imatinib-resistant mutation.
Excerpt: [Worded in the source for another cell line; this cell line is reported under the same test.] as §2, §3

For a further assay, the system named is early phase CML. Conditions: patients with early phase CML; cited from earlier work.

T2 sequence (P08581 956-1390): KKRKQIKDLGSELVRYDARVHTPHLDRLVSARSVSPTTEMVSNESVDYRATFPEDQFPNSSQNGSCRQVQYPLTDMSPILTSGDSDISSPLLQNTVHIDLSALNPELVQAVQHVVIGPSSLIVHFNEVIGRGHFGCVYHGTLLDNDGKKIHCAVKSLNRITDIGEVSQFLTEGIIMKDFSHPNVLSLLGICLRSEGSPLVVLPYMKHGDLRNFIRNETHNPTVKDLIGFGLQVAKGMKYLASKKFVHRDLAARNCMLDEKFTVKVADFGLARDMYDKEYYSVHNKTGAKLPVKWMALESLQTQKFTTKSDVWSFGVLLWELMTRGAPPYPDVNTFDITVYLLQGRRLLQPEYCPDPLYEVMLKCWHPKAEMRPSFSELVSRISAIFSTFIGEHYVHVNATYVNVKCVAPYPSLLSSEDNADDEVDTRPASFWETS

Take `Cc1cn(-c2cc(NC(=O)c3ccc(C)c(Nc4nccc(-c5cccnc5)n4)c3)cc(C(F)(F)F)c2)cn1` [AMN-107, nilotinib]: the “potency of Bcr-Abl kinase inhibition relative to Imatinib” value in the assay with Bcr-Abl kinase is 20 fold. The “inhibition of E255K mutant in a biochemical assay” value in the assay with Bcr-Abl E255K mutant is on record as “somewhat weak inhibition”. For the same compound, the “inhibition of Imatinib-resistant Bcr-Abl mutations” value in [1] was “inhibit most Imatinib-resistant Bcr-Abl mutations, except for T315I”.

Regarding `CNC(=O)c1cc(Oc2ccc(NC(=O)Nc3cc(C(C)(C)C)nn3-c3cccc(CO)c3)c(Cl)c2)ccn1` [ANDREA-1, 4-{4-[({3-tert-Butyl-1-[3-(hydroxymethyl)phenyl]-1H-pyrazol-5-yl}carbamoyl)amino]-3-chlorophenoxy}-N-methylpyridine-2-carboxamide], the half-maximal inhibitory concentration (IC50) (commonly the concentration that inhibits the measured activity by half) in assay [2] was < 10000 nM; in the assay with K562 it was 0.448 nM; in assay [3] it was > 3000 nM; on human recombinant c-Met, < 10000 nM; with BaF3-Abl(Y253F), 4.96 nM; with BaF3-Abl(E255K), 53.9 nM. Besides, the IC50 was 71 nM in the assay on BaF3-Abl(T315I), 2.81 nM in the assay with BaF3-Abl(wt), < 10000 nM against Bcr-Abl-wt kinase and 8.38 nM with BaF3-Abl(M351T).

Regarding `Cc1ccc(NC(=O)c2ccc(CN3CCN(C)CC3)cc2)cc1Nc1nccc(-c2cccnc2)n1` [Imatinib], the “degree of response at haematological and cytogenetic levels” value with early phase CML was “greater than 90%”.
